Several values for one entry are separate records, joined by “and”; a condition that tells them apart may be missing. Equal values may be shown once.
Assays:
C2C12 Cells = experiment: GFP plasmid transfection with DOTMA/DOPE plus surface ligand peptide, fluorescent plate reader (Example 1); assay type: cell-based, mouse; conditions: DOTMA/DOPE + peptide linked to R12 or K16; EF1Alpha eGFP plasmid; 42 hours
Experimental: (§1) Cells were plated to so that on the day of transfection the cells were 70% confluent in 96 well tissue culture plates. A DOMTA/DOPE Lipid solution (1:1 molar ratio) at 2 mg/mL in water were mixed with an equal volume cell surface ligand containing adhesion peptide, the plant virus movement protein, or peptide derived therefrom, that had the nucleic acid binding moiety RRRRRRRRRRRR (SEQ ID NO:109) or KKKKKKKKKKKKKKKK (SEQ ID NO: 102) covalently linked to the N-terminus, or C-terminus of each peptide during peptide synthesis. Peptides were at 2 mg/mL in water. The DOTMA/DOPE and the solution containing the cell surface ligand containing adhesion peptide, the plant virus movement protein, or peptide derived therefrom, surface ligand peptide the was diluted 1 to 1 (v/v) in water. DOMTA/DOPE/PEPTIDE solutions were added to 0.1 mL of a plasmid DNA solution (EF1Alpha eGFP plasmid) at 10 μg/mL in OptiMEM.
(§2) All solutions were at room temperature. A volume of 0.2 mL of a 10 μg/mL solution of DNA was aliquoted into each well of a non-tissue cultured treated plate. 1-12 μL of transfection reagents were added to DNA solutions respectively. The transfection reagent and DNA solution was mixed by pipetting up and down twice. Transfection complexes were formed for 10 minutes. After 10 minutes, 0.01 or 0.02 mL of the transfection complex was added to cells. HuVEC, HeLa, human adult keratinocytes, human primary adult fibroblast, and A549 cells all respectively received 0.01 mL of the transfection complex. Human skeletal muscle cells, mouse C2C12 cells, and Jurkat, cells received 0.02 mL of the transfection complex. Cells were incubated for 42 hours at 37° C. at 5% CO2. Plates were read on a fluorescent plate reader. Cells were also examined visually under a microscope to assess the extent of transfection (in terms of the percent of cells transfected) with a fluorescent microscope. Other modes of analysis, for example quantification with B-galactocidase or luciferase reports plasmids can also be used.
(§3) Surface ligand that caused increase expression of GFP over the lipid DOTMA with no surface ligand were considered to enhance transfection or had higher % cells transfected were considered to enhance transfection. Peptides that gave greater than 2-fold enhancement are noted in bold and could be further optimized by adding different transfection enhancers or could be used with different cationic lipids or polymers.
(§4) Tables 2-7, below, provide the results of the transfection enhancements with the various cell types, while Table 8 lists the peptides that were determined by visual inspection to enhance the transfection of the denoted cell lines over the lipid DOTMA.

HeLa Cells [1] = experiment: GFP transfection with DOTMA/SEQ ID NO: 72 (fusogenic peptide)/peptide compared with Lipofectamine 2000; assay type: cell-based
Experimental: as §1, §2
The fusogenic peptide was added to the DOMTA/peptide formulation to achieve a final concentration of 0.1 mg/mL to see if transfection reagents were further enhanced by the addition of a fusogenic peptide and could provide higher transfection efficiency into HeLa cells and expression than the commercially available Lipofectamine 2000.

Human Fibroblast Cells = experiment: GFP plasmid transfection with DOTMA/DOPE plus surface ligand peptide, fluorescent plate reader (Example 1); assay type: cell-based; conditions: DOTMA/DOPE + peptide linked to R12 or K16; EF1Alpha eGFP plasmid; 42 hours
Experimental: as §1, §2, §3, §4

HeLa Cells [2] = experiment: as above; assay type: cell-based; conditions: DOTMA/DOPE + peptide linked to R12 or K16; EF1Alpha eGFP plasmid; 42 hours
Experimental: as §1, §2, §3, §4

HuVec Cells = experiment: as above; assay type: cell-based; conditions: DOTMA/DOPE + peptide linked to R12 or K16; EF1Alpha eGFP plasmid; 42 hours
Experimental: as §1, §2, §3, §4

Jurkat Cells = experiment: as above; assay type: cell-based; conditions: DOTMA/DOPE + peptide linked to R12 or K16; EF1Alpha eGFP plasmid; 42 hours
Experimental: as §1, §2, §3, §4

NL-1 iPS Cells = experiment: as above; assay type: cell-based; conditions: DOTMA/DOPE + peptide linked to R12 or K16; EF1Alpha eGFP plasmid; 42 hours
Experimental: as §1, §2, §3, §4

some examined cell types = experiment: Summary of Example 1: transfection expression and % cells transfected over the no peptide control; assay type: cell-based; conditions: on some examined cell types
Experimental: as §1, §2, §3

[3] = 0.1 μL of DOTMA/SEQ ID NO: 72/Peptide in well of a 96 well plate
[4] = 0.2 μL of DOTMA/SEQ ID NO: 72/Peptide in well of a 96 well plate
[5] = 0.3 μL of DOTMA/SEQ ID NO: 72/Peptide in well of a 96 well plate
[6] = 0.4 μL of DOTMA/SEQ ID NO: 72/Peptide in well of a 96 well plate

Substance	Relative Fluorescence of Transfection of C2C12 Cells (RF) (C2C12 Cells)	Relative Fluorescence DOTMA/SEQ ID NO: 72/Peptide, HeLa Cells (RF) (HeLa Cells [1]; [3])	Relative Fluorescence DOTMA/SEQ ID NO: 72/Peptide, HeLa Cells (RF) (HeLa Cells [1]; [4])	Relative Fluorescence DOTMA/SEQ ID NO: 72/Peptide, HeLa Cells (RF) (HeLa Cells [1]; [5])	Relative Fluorescence DOTMA/SEQ ID NO: 72/Peptide, HeLa Cells (RF) (HeLa Cells [1]; [6])	Relative Fluorescence of Transfection of Human Fibroblast Cells (RF) (Human Fibroblast Cells)	Relative Fluorescence of Transfection of HeLa Cells (RF) (HeLa Cells [2])	Relative Fluorescence of Transfection of HuVec Cells (RF) (HuVec Cells)	Relative Fluorescence of Transfection of Jurkat Cells (RF) (Jurkat Cells)	Relative Fluorescence of Transfection of NL-1 iPS Cells (RF) (NL-1 iPS Cells)	transfection expression and % cells transfected over the no peptide control (some examined cell types)
335 (TVFSVDQDNMLE) [compound 335]	4689	12866	12458	11547	9753	8534	26954	6350	4567	14424	
234 (YEKPGSPPREVVPRPRPGV) [compound 234]	681					4145	3867	13956	5441	14410	
224 (KPDVRSYTITG) [compound 224]	1469					5995	5559	15945	13170	25209	
501 (DLGTAGSCLRRFSTM) [compound 501]	5913	23571	23993	20410	14749	9473			12350		increased transfection expression and the % cells transfected
235 (KARSFNVNQLLQD) [compound 235]								26940			
107 (RRRRRRRR) [compound 107]							75			1441	
363 (LAGSCLARFSTM) [compound 363]	1080					3008	2590	1383	2432	4189	
236 (KNNQKSEPLIGRKKT) [compound 236]		5993	8846	8492	7316	3630 and 3000	7202 and 5042	14418		43542 and 22256	increased transfection expression and the % cells transfected
371 (GPAGKDGEAGAQG) [compound 371]	983					4584	5180	10669	6093	17587	
502 (RNIAEIIKDI) [compound 502]	2589										

Source: patent publication US20250154525A1, “PLANT VIRUS MOVEMENT PROTEINS AND METHODS OF USING SAME” (Molecular Transfer, Inc., priority 2016, published 2025)
